Source: EP2886535A1, “Novel veterinary isometamidium compositions and similar substances and uses thereof” (Ceva Sante Animale, priority 2013, dated 2015)
Where two headings read alike, the source gives them in different places.

How the values were obtained:
[1] = test system: T. congolense; test: In vivo curative and preventive activity in infected and monthly re-infected mice; parameters: species or system souris femelles swiss (CD1); conditions: for Nombre de souris avec une parasitemia positive: n=5; for activité curative et préventive (durée): dose 1 mg/kg
Procedure: La souche T. congolense est cultivée et les différents composés sont préparés selon les protocoles de culture et de préparation décrits pour les tests in vitro (Exemples 1 et 2).
Des parasites de la souche de T. congolense ont été initialement propagés dans des souris femelles swiss (CD1) âgées de 8 semaines (200 mg/kg). Ces souris sont ensuite infectés par voie intrapéritonéale avec 10^5 trypanosomes de souche T. congolense dans un volume final de 200 µl de tampon phosphate glucose (137 mM NaCl, 10 mM phosphate, […], pH 7,4, 1% glucose). Les souris sont alors traitées par les composés à tester 24 heures après l'infection (5 souris traités par composé à tester + un groupe témoin). Chaque composé testé est injecté par voie intrapéritonéale et à des concentrations de 1 et 0,1 mg/kg de poids corporel dans un volume final de 100 µl d'eau stérile. Les souris témoins non traitées reçoivent 100 µl d'eau stérile après infection. La parasitémie a été évaluée 2 fois par semaine au microscope à partir d'échantillons de sang prélevés sur la veine caudale. Afin d'évaluer la persistance des composés, les souris qui étaient parasite-négatives après un mois ont été ré-infectées avec 10^5 trypanosomes. La réinfection a été répétée après le deuxième et troisième mois à partir de l'infection initiale et du traitement si les souris infectées étaient toujours aparasitémiques (sans parasites dans le sang). La réinfection a été réalisée avec des parasites provenant de souris témoins infectées de manière chronique pour éviter une réponse immunitaire immédiate due à la présence d'anticorps homologues anti-VSG. Deux souris non-traitées (Témoin) ont été infectées à chaque infection et réinfection. Le traitement a été considéré inefficace quand plus de 2 souris sur 5 dans un groupe étaient parasite-positives.

[2] = test system: T. congolense; conditions: cattle, Finelle et al. 1963; cited from earlier work
[3] = test system: T. congolense; conditions: mice, Brown et al. 1961; purity of compounds unsatisfactory; cited from earlier work
[4] = test system: T. congolense; test: In vitro drug sensitivity test on cultured bloodstream forms, 48 h; format: cell-based; conditions: for IC50: 48 h exposure, 34 °C; for activité trypanocide inférieure à celle des formulations commerciales: versus Veridium and Samorin, 48 h, up to about
Description: (§1) Les souches T. congolense et T. b. brucei (formes sanguines) ont été cultivées in vitro selon le protocole décrit par Baltz et al. (Embo. J. 1985, 4, 1273-1277) et Coustou et al. (PLOS Negl. Trop. Dis., 2010, 4, 618).
(§2) L'isométamidium a été synthétisé et a été purifié par HPLC (220 nm). L'analyse de sa structure a été confirmée par LC /MS et par RMN 1H et 13C et un degré de pureté de 99,7 % a été obtenu. L'isométamidium pur ainsi que les formulations commerciales Veridium® et Samorin® ont été dissous dans de l'eau distillée (10 mg / ml) et ont été conservés à -20°C avant utilisation.
(§3) Les trypanosomes sont ajoutés dans des plaques de culture cellulaire 96 puits incubées à 34 °C (T. congolense) ou à 37 °C (T. b. brucei) sous atmosphère de CO2 (4 %) pendant 4 heures avant l'ajout des composés qui ont été dilués en série 1/10^eme. 100 µl de chaque dilution ont été ensuite ajoutés à 100 µl de culture dans les puits (2 puits pour chaque dilution de 1 mg/ml jusqu'à 1.10^-19 mg/ml) puis le milieu est incubé à 34 °C (T. congolense) ou à 37 °C (T. b. brucei) sous atmosphère de CO2 (4 %) pendant 48 heures. Les IC50 (Concentration qui réduit de 50% la population parasitaire au bout de 48 heures de culture) ont été calculées en utilisant le logiciel de traitement de données Sigmaplot version 12.
(§4) Les souches T. congolense et T. b. brucei (formes sanguines), les différents composés et leur IC50 ont été, respectivement, cultivées in vitro, préparés et évaluées selon le protocole décrit dans l'exemple 1. Les puretés respectives pour chaque composé obtenu étaient de 97,6 % pour l'isomère bleu, 95,4% pour l'isomère rouge et 97,9 % pour le composé disubstitué.

[5] = test system: T. b. brucei; test: as above; format: cell-based; conditions: for IC50: 48 h exposure, 37 °C
Description: as §1, §2, §3, §4

[6] = Trypanosoma congolense, read-out: IC50
[7] = Trypanosoma brucei, read-out: IC50

Row | Structure (SMILES) | Nombre de souris avec une parasitemia positive ([1]; dose 0.1 mg/kg i.p., 1 mois) | activité curative et préventive (durée) [1] | Nombre de souris avec une parasitemia positive ([1]; dose 1 mg/kg i.p., 1 mois) | Nombre de souris avec une parasitemia positive ([1]; dose 1 mg/kg i.p., 2 mois) | activité trypanocide in-vivo [3] | IC50 [4] | IC50 [4, 6] [µg/mL] | IC50 [5] | IC50 [5, 7] [µg/mL] | Nombre de souris avec une parasitemia positive ([1]; dose 0.1 mg/kg i.p., 2 mois) | activité trypanocide inférieure à celle des formulations commerciales [4] [fois] | Nombre de souris avec une parasitemia positive ([1]; dose 1 mg/kg i.p., 3 mois) | further results
1 | CC[n+]1c(-c2ccccc2)c2cc(N=NNc3cccc(C(=N)N)c3)ccc2c2ccc(N=NNc3cccc(C(=N)N)c3)cc21 [Composé disubstitué pur, 3,8-di-(3-m-amidinophenyltriazeno)-5-éthyl-6-phénylphénanthridium] | 5 | pendant au moins trois mois | 0 | 0 | activité prophylactique et non curative | 66,27 ± 14,37 ng/ml | 0.0663 | >1 µg/mL | > 1 |  |  |  | Nombre de souris avec une parasitemia positive ([1]; dose 1 mg/kg i.p., 3 mois, listed as Composé disubstitué, 1 mg/kg): 1; Nombre de souris avec une parasitemia positive ([1]; dose 1 mg/kg i.p., 3 mois, listed as composé disubstitué, 1 mg/kg): seule une souris est parasite-positive; Nombre de souris avec une parasitemia positive ([1]; dose 1 mg/kg i.p., 4 mois, listed as Composé disubstitué, 1 mg/kg): 4; Nombre de souris avec une parasitemia positive ([1]; dose 1 mg/kg i.p., 4 mois, listed as composé disubstitué, 1 mg/kg): la seule souris parasite-négative; protection / activité curative [2]: permettait de protéger les bovins contre T. congolense, mais était dépourvu de toute activité curative
2 | CC[n+]1c(-c2ccccc2)c2c(N=Nc3cccc(C(=N)N)c3)c(N)ccc2c2ccc(N)cc21 [Isomère bleu, 7-(m-amidinophényldiazo)-3,8-diamino-5-éthyl-6-phényl phénanthridinium, reference compound] | 0 | n'est plus significative au bout de deux mois | 0 | 4 | activité trypanocide curative | 7,11 ± 0,76 ng/ml | 0.00711 | 12,01 ± 2,22 ng/ml | 0.012 | 5 | ≤ 10 |  | protection des souris d'une infection (durée) ([1]; dose 0,1 mg/kg): ne sont actifs que pendant un mois
3 | CC[n+]1c(-c2ccccc2)c2cc(N)ccc2c2ccc(N=NNc3cccc(C(=N)N)c3)cc21 [Isomère rouge, 3-(3-m-amidinophényl-2-triazeno)-8-amino-5-éthyl-6-phénylphénanthridinium] | 0 |  | 0 | 1 |  | 3,63 ± 0,55 ng/ml | 0.00363 | 202,15 ± 62,92 ng/ml | 0.202 | 5 | ≤ 10 | 5 | activité trypanocide inférieure à celles des compositions commerciales ([5]; versus commercial compositions, 48 h): ~20 fois
4 | CC[n+]1c(-c2ccccc2)c2cc(N/N=N/c3cccc(C(=N)N)c3)ccc2c2ccc(N)cc21 [Isométamidium pur, 8-(3-m-amidinophényl-2-triazeno)-3-amino-5-éthyl-6-phénylphénanthridinium] | 0 |  | 0 | 0 |  | 0,56 ± 0,05 ng/ml | 0.00056 | 9,24 ± 2,13 ng/ml | 0.00924 | 0 |  | 0 | Nombre de souris avec une parasitemia positive ([1]; dose 0.1 mg/kg i.p., 3 mois): 0; Nombre de souris avec une parasitemia positive ([1]; dose 0.1 mg/kg i.p., 4 mois): 5; Nombre de souris avec une parasitemia positive ([1]; dose 1 mg/kg i.p., 4 mois): 5
